From the METLIN SMRT retention time set (Domingo-Almenara et al. 2019)

Assay: gradient 5% acetonitrile 3 min, to 50% in 2 min, to 85% in 15 min, held 3 min, 100 µL/min
Settings: column: Zorbax Extend-C18 2.1 x 50 mm; eluents: water / acetonitrile, 0.1% formic acid
Procedure, shortened: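 Retention time was recorded from adduct peaks, which were picked computationally and each inspected manually. Pure standards ran in mixtures of ~100 molecules on HPLC coupled to a quadrupole time-of-flight mass spectrometer, in positive and negative ionization mode, through a Zorbax Extend-C18 column (2.1 × 50 mm, 1.8 μm) at 100 μL/min. Eluents were water and acetonitrile, each with 0.1% formic acid.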

An RP-LC retention time of 793 s was found for `CCc1ccc(CNC(=O)C2CCN(Cc3cn(C)c4ccc(Cl)cc34)CC2)cc1` in this work.
An RP-LC retention time of 1090 s was found for `Cc1csc(-c2csc(S(=O)(=O)N3CCN(c4ccccc4)CC3)c2)n1` in this work.
An RP-LC retention time of 742 s was found for `CN1C(=O)c2cc(C(=O)N3CCN(c4ncccn4)CC3)nn2CC1(C)C(=O)NC1CCCCCC1` (configuration not stated) in this work.
An RP-LC retention time of 758 s was found for `CCCCNC(=O)C1CCc2nc(N3CCC(C)CC3)ncc2C1` (configuration not stated) in this work.
An RP-LC retention time of 575 s was found for `COCCOC1CCC12CCN(C(=O)c1cnc[nH]1)CC2` (configuration not stated) in this work.
An RP-LC retention time of 722 s was found for `CCOc1ccc(S(=O)(=O)Nc2cc(-c3cn4cccc(C)c4n3)ccc2C)cc1` in this work.
An RP-LC retention time of 550 s was found for `CCn1nnc2c(N3CCN(CC(=O)NC4CCCC4)CC3)ncnc21` in this work.
An RP-LC retention time of 1040 s was found for `CCOc1ccc(N2C(=O)C3N=NN(Cc4nc(-c5cccc(C)c5)no4)C3C2=O)cc1` (configuration not stated) in this work.
An RP-LC retention time of 948 s was found for `COc1ccc(-c2noc(C3CCCN3C(=O)NC3CCCCC3)n2)cc1` (configuration not stated) in this work.
An RP-LC retention time of 700 s was found for `COc1cccc(N2CCN(C(=O)c3cc4c(=O)n(C)ccc4n3C)CC2)c1` in this work.
An RP-LC retention time of 765 s was found for `Cc1noc2nc(C)n(CC(=O)Nc3ccc(F)cc3)c(=O)c12` in this work.
An RP-LC retention time of 1210 s was found for `CCOc1cccc(-c2noc(Cn3c(=O)n(Cc4ccc(F)cc4)c(=O)c4sccc43)n2)c1` in this work.
An RP-LC retention time of 881 s was found for `O=C(CN1CCN(Cc2ccc(F)cc2Cl)C1=O)N1CCN(c2ccccc2)CC1` in this work.
An RP-LC retention time of 1200 s was found for `Cc1cccc(-c2noc(Cn3ncn4nc(-c5ccccc5Cl)cc4c3=O)n2)c1` in this work.
An RP-LC retention time of 852 s was found for `CC(C)(C)C1=NN=C2c3ccccc3C(=O)C21` (configuration not stated) in this work.
An RP-LC retention time of 725 s was found for `CC(C)c1nnc(-c2cccnc2N2CCN(C(=O)c3ccoc3)CC2)o1` in this work.
An RP-LC retention time of 862 s was found for `Cc1ccc(NC(=O)Nc2nc(CC(=O)Nc3ccc(F)c(F)c3)cs2)cc1` in this work.
An RP-LC retention time of 750 s was found for `O=C(CN1C(=O)C2CCCCN2c2ccc(S(=O)(=O)N3CCCC3)cc21)N1CCOCC1` (configuration not stated) in this work.
An RP-LC retention time of 744 s was found for `CCC(CC)C(=O)NCCc1nc2cccnc2n1-c1ccccc1` in this work.
An RP-LC retention time of 798 s was found for `Cc1nnc(-c2ccc3ccn(CC(=O)Nc4cccc(C#N)c4)c3c2)o1` in this work.
An RP-LC retention time of 915 s was found for `Cc1cccc(Cn2nc3ccc(S(=O)(=O)N4CCCCC4)cn3c2=O)c1` in this work.
An RP-LC retention time of 1170 s was found for `Cc1cccc(-c2noc(Cn3c(=O)n(C(C)C)c(=O)c4ccccc43)n2)c1` in this work.
An RP-LC retention time of 888 s was found for `CC1=C(c2ccc(C)cc2)S(=O)(=O)N=C1N1CCCN(C(=O)CC(C)(C)C)CC1` in this work.
An RP-LC retention time of 799 s was found for `Cc1ccc(NC(=O)N2CCC3(CC2)NC(=O)c2ccccc2O3)cc1F` in this work.
An RP-LC retention time of 591 s was found for `CCOC(=O)C1CCc2sc(NC(=O)CNC(=O)c3ccc(=O)[nH]c3)nc21` (configuration not stated) in this work.
An RP-LC retention time of 841 s was found for `Cn1cc2c(n1)c(=O)n(Cc1ccc(F)cc1)c(=O)n2CC(=O)Nc1cc(F)ccc1F` in this work.
An RP-LC retention time of 697 s was found for `COc1ccccc1NC(=O)N1CCCC1c1nncn1C1CCCC1` (configuration not stated) in this work.
An RP-LC retention time of 661 s was found for `CNC(=O)N1CCc2ccc(C(=O)NC(C)(C)C)cc21` in this work.
An RP-LC retention time of 691 s was found for `CC(C)NCc1ccc(-c2cccc(Cl)c2)o1` in this work.
An RP-LC retention time of 814 s was found for `COc1ccc(N2CCN(c3cc(SCC(=O)Nc4cc(OC)cc(OC)c4)ncn3)CC2)cc1` in this work.
An RP-LC retention time of 689 s was found for `O=C(Nc1cc(F)ccc1F)N1CCCC(Cn2c(C3CC3)nc3cccnc32)C1` (configuration not stated) in this work.
An RP-LC retention time of 741 s was found for `Cc1cccc(C(=O)NC2CCN(c3cc(-c4cccs4)[nH]n3)C2)c1` (configuration not stated) in this work.
An RP-LC retention time of 623 s was found for `CC(C)(C)c1cc(N)n(C2CCS(=O)(=O)C2)n1` (configuration not stated) in this work.
An RP-LC retention time of 751 s was found for `O=C(Nc1nccs1)c1cccc(NS(=O)(=O)c2ccc(F)cc2)c1` in this work.
An RP-LC retention time of 1280 s was found for `COc1cccc(-c2csc(Cc3nc(-c4cccc(Cl)c4)no3)n2)c1` in this work.
An RP-LC retention time of 770 s was found for `COc1cccc2cc(C(=O)NCCC(O)C(C)(C)C)oc12` (configuration not stated) in this work.
An RP-LC retention time of 971 s was found for `CN(C(=O)c1cn(-c2ccc(-c3nc(C4CC4)no3)cn2)cn1)C1CCCCC1` in this work.
An RP-LC retention time of 733 s was found for `Clc1cc(Cl)cc(-c2ccc(CNCc3cccnc3)o2)c1` in this work.
An RP-LC retention time of 905 s was found for `COCCCNS(=O)(=O)c1ccccc1-c1nc(-c2ccc(F)cc2)no1` in this work.
An RP-LC retention time of 905 s was found for `CCc1ccc(NC(=O)NC2CCN(c3ccc(F)c(C)c3)C2=O)cc1` (configuration not stated) in this work.
An RP-LC retention time of 848 s was found for `CCSc1ccccc1C(=O)NCc1nc(COc2ccc(OC)cc2)no1` in this work.
An RP-LC retention time of 596 s was found for `COc1cc(-c2noc(Cn3ccnc3C)n2)cc(OC)c1OC` in this work.
An RP-LC retention time of 778 s was found for `Cc1ccc(Nc2c(-c3cccc(Br)c3)nc3ccccn23)cc1` in this work.
An RP-LC retention time of 879 s was found for `Cc1c(Cl)cccc1NC(=O)CN1C(=O)CCCc2cc(S(=O)(=O)N3CCCC3)ccc21` in this work.
An RP-LC retention time of 1020 s was found for `COc1ccccc1Cc1nc(-c2cn(-c3ccc(F)cc3)nn2)no1` in this work.
An RP-LC retention time of 568 s was found for `Cc1nnc(-c2nnc(N3CCCC3)c3ccccc23)o1` in this work.
An RP-LC retention time of 631 s was found for `CC(C)(C)Cn1c(N)nc2ccc(-c3[nH]c(C(C)(C)C)nc3-c3ccc(F)cc3)nc21` in this work.
An RP-LC retention time of 689 s was found for `O=C(C1CCCN(c2ncc(-c3cccc(F)c3)cn2)C1)N1CCC(N2CCCCC2)CC1` (configuration not stated) in this work.
An RP-LC retention time of 1130 s was found for `Cc1ccc(N2CC(c3nc(-c4ccccc4C)no3)CC2=O)cc1F` (configuration not stated) in this work.
An RP-LC retention time of 745 s was found for `CCc1ccc(S(=O)(=O)Nc2cc(-c3cn4ccc(C)cc4n3)ccc2C)cc1` in this work.
An RP-LC retention time of 760 s was found for `Cc1noc(-c2ccnc(-n3cnc(C(=O)NCc4cccc(Cl)c4)c3)c2)n1` in this work.
An RP-LC retention time of 603 s was found for `Cc1oc(-c2ccc(C(=O)NCCCN3CCOCC3)cc2)nc1CN1CCc2ccccc21` in this work.
An RP-LC retention time of 856 s was found for `Cc1csc(-c2ccc(N3CCN(C(=O)COc4ccc(F)cc4)CC3)nc2)n1` in this work.
An RP-LC retention time of 515 s was found for `O=C(NCc1cccnc1)C1(CCO)CCN(c2ncccn2)C1` (configuration not stated) in this work.
An RP-LC retention time of 580 s was found for `Cc1noc(C)c1CN1CCC(NC(=O)c2ccc(F)cc2F)C1` (configuration not stated) in this work.
An RP-LC retention time of 730 s was found for `Cc1noc(-c2ccc(S(=O)(=O)N3CCN(c4ccccn4)CC3)s2)c1C` in this work.
An RP-LC retention time of 1020 s was found for `CCn1c(=O)c2ccccc2n(Cc2nc(-c3ccccc3Br)no2)c1=O` in this work.
An RP-LC retention time of 995 s was found for `COc1ccc(-c2ccc(=O)n(Cc3nc(-c4ccc(F)cc4)no3)n2)cc1` in this work.
An RP-LC retention time of 844 s was found for `CCCN(CC1CCOC1)C(=O)c1cc(Cl)ccc1F` (configuration not stated) in this work.
An RP-LC retention time of 730 s was found for `CCCn1c(C)cnc1CC1CCN(S(=O)(=O)c2ccc3c(c2)CCC3)C1` (configuration not stated) in this work.
An RP-LC retention time of 730 s was found for `COc1ccc(-c2nc(C)c(C(=O)O)s2)cc1OC` in this work.
An RP-LC retention time of 745 s was found for `COCCN1C(=O)c2ccccc2C(C(=O)Nc2cc(C)ccn2)C12CCCCC2` (configuration not stated) in this work.
An RP-LC retention time of 742 s was found for `N#Cc1ccc(C(=O)NC2CCN(c3ccccc3)C2=O)cc1` (configuration not stated) in this work.
An RP-LC retention time of 779 s was found for `CC1(C(=O)NCc2ccccc2)CN(S(C)(=O)=O)CC(=O)N1Cc1ccc(F)cc1` (configuration not stated) in this work.
An RP-LC retention time of 906 s was found for `Cc1cc(S(=O)(=O)NCC(c2cccs2)S(=O)(=O)c2ccccc2)ccc1F` (configuration not stated) in this work.
An RP-LC retention time of 795 s was found for `O=C1CCCc2cc(S(=O)(=O)N3CCC(C(=O)NC4CCCc5ccccc54)CC3)ccc2N1` (configuration not stated) in this work.
An RP-LC retention time of 775 s was found for `COc1cccc(CNC2=NCCNC23CCN(S(=O)(=O)c2ccc(C)c(C)c2)CC3)c1` in this work.
